13 molecules from US8658604B2, “Template-fixed beta-hairpin peptidomimetics with protease inhibitory activity” (Polyphor Ltd, priority 2005, dated 2014) can be followed below.

Assay [1] addresses Trypsin, from human pancreas (Homo sapiens, UniProt P07477). The experiment in a line: Enzymatic assay, trypsin.
Assay [2] addresses Tryptase, from human lung. Kind of assay: Enzymatic assay, tryptase. As to conditions: read-out: Tryptase IC50.
The target in assay [3] is T1, CathepsinG, from human neutrophils (Homo sapiens, UniProt P08311).
T1 sequence (P08311 21-244): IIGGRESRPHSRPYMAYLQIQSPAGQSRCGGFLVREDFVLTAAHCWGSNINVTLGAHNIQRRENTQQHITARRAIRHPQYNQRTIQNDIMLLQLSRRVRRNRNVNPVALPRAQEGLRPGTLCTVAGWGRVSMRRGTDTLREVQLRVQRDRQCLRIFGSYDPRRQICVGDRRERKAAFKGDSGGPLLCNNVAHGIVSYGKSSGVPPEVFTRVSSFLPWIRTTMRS
Kind of assay: Enzymatic assay, cathepsin G. As to conditions: Cathepsin G IC50.

Assay [4] addresses T2, Elastase from human neutrophils (Homo sapiens, UniProt P08246).
T2 sequence (P08246 30-267): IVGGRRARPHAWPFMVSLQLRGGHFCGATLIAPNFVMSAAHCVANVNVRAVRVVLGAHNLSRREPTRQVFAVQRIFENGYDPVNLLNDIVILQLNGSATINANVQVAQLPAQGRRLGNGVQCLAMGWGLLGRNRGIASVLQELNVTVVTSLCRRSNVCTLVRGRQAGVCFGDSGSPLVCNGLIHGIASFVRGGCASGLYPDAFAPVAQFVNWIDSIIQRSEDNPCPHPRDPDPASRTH
The experiment in a line: Enzymatic assay, elastase. Particulars: Elastase IC50.

Assay [5] deals with Chymotrypsin, from human pancreas (Homo sapiens, UniProt P17538). The experiment in a line: Enzymatic assay, chymotrypsin.

pIC50: −log10 of the molar value. Where a SMILES comes first, the peptide text is derived from it.

Sequence of Chymotrypsin, from human pancreas (P17538 19-263): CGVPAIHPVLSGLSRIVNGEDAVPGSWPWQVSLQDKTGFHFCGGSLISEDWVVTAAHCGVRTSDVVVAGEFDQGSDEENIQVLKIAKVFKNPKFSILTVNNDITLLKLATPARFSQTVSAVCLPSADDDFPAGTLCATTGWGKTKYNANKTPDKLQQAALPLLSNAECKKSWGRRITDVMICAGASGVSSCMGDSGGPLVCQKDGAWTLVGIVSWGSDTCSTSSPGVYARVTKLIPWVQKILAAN

For `CC[C@H](C)[C@@H]1NC(=O)[C@@H]2CCCN2C(=O)[C@@H]2CCCN2C(=O)[C@H](CC(C)C)NC(=O)[C@H](CO)NC(=O)[C@H](CCCCN)NC(=O)[C@H]([C@@H](C)O)NC(=O)[C@@H]2CSSC[C@H](NC1=O)C(=O)N[C@@H](CCCNC(=N)N)C(=O)N1CCC[C@@H]1C(=O)N1CCC[C@H]1C(=O)N[C@@H](Cc1ccccc1)C(=O)N2` [Ex. 184] (HELM PEPTIDE1{F.C.T.K.S.L.P.P.I.C.R.[dP].P}$PEPTIDE1,PEPTIDE1,2:R3-10:R3|PEPTIDE1,PEPTIDE1,1:R1-13:R2$$$V2.0), the negative-log IC50 (pIC50) is 7.32 in assay [1], 7.57 in assay [2] and 6.66 in assay [3].
On the same counts, the results for `CC[C@H](C)[C@@H]1NC(=O)[C@@H]2CCCN2C(=O)[C@H]2CCCN2C(=O)[C@H](CCCNC(=N)N)NC(=O)[C@@H]2CSSC[C@H](NC1=O)C(=O)N[C@@H]([C@@H](C)O)C(=O)N[C@@H](CCCCN)C(=O)N[C@@H](CO)C(=O)N[C@@H](CCc1ccccc1)C(=O)N1CCC[C@H]1C(=O)N1CCC[C@H]1C(=O)N[C@@H]([C@@H](C)CC)C(=O)N2` [Ex. 181] (HELM PEPTIDE1{I.C.T.K.S.[O=C([C@H](CCc1ccccc1)N[*:1])[*:2]].P.P.I.C.R.[dP].P}$PEPTIDE1,PEPTIDE1,2:R3-10:R3|PEPTIDE1,PEPTIDE1,1:R1-13:R2$$$V2.0) are 6.95, 7.40 and 6.90.
Taken in the same sequence, the figures for `CC[C@H](C)[C@@H]1NC(=O)[C@@H]2CCCN2C(=O)[C@H]2CCCN2C(=O)[C@H](CCCNC(=N)N)NC(=O)[C@@H]2CSSC[C@H](NC1=O)C(=O)N[C@@H]([C@@H](C)O)C(=O)N[C@@H](CCCCN)C(=O)N[C@@H](CO)C(=O)N[C@@H](CC1CCCCC1)C(=O)N1CCC[C@H]1C(=O)N1CCC[C@H]1C(=O)N[C@@H]([C@@H](C)CC)C(=O)N2` [Ex. 182] (HELM PEPTIDE1{I.C.T.K.S.[Cha].P.P.I.C.R.[dP].P}$PEPTIDE1,PEPTIDE1,2:R3-10:R3|PEPTIDE1,PEPTIDE1,1:R1-13:R2$$$V2.0) were 7.23, 7.41 and 6.95.
On to `CC[C@H](C)[C@@H]1NC(=O)[C@@H]2CCCN2C(=O)[C@H]2CCCN2C(=O)[C@H](CCCCN)NC(=O)[C@@H]2CSSC[C@H](NC1=O)C(=O)N[C@@H]([C@@H](C)O)C(=O)N[C@@H](CCCCN)C(=O)N[C@@H](CO)C(=O)N[C@@H](CC(C)C)C(=O)N1CCC[C@H]1C(=O)N1CCC[C@H]1C(=O)N[C@@H](CCCNC(=N)N)C(=O)N2` [Ex. 190] (HELM PEPTIDE1{I.C.T.K.S.L.P.P.R.C.K.[dP].P}$PEPTIDE1,PEPTIDE1,2:R3-10:R3|PEPTIDE1,PEPTIDE1,1:R1-13:R2$$$V2.0), for which the negative-log IC50 (pIC50) in assay [1] is 6.76; in assay [2], > 7.00; in assay [3], 5.82.
On the same counts, the results for `CC(C)C[C@@H]1NC(=O)[C@H](CO)NC(=O)[C@H](CCCCN)NC(=O)[C@H]([C@@H](C)O)NC(=O)[C@@H]2CSSC[C@H](NC(=O)[C@H](CCCCN)NC(=O)[C@@H]3CCCN3C(=O)[C@@H]3CCCN3C1=O)C(=O)N[C@@H](CCCNC(=N)N)C(=O)N1CCC[C@@H]1C(=O)N1CCC[C@H]1C(=O)N[C@@H](CC1CCCCC1)C(=O)N2` [Ex. 193] (HELM PEPTIDE1{[Cha].C.T.K.S.L.P.P.K.C.R.[dP].P}$PEPTIDE1,PEPTIDE1,2:R3-10:R3|PEPTIDE1,PEPTIDE1,1:R1-13:R2$$$V2.0) are 7.46, 8.22 and 6.37.
Taken in the same sequence, the figures for `CC[C@H](C)[C@@H]1NC(=O)[C@@H]2CCCN2C(=O)[C@H]2CCCN2C(=O)[C@H](CCCNC(=N)N)NC(=O)[C@@H]2CSSC[C@H](NC1=O)C(=O)N[C@@H]([C@@H](C)O)C(=O)N[C@@H](CCCCN)C(=O)N[C@@H](CO)C(=O)N[C@@H](CC(C)C)C(=O)N1CCC[C@H]1C(=O)N1CCC[C@H]1C(=O)N[C@@H](CCCCN)C(=O)N2` [Ex. 186] (HELM PEPTIDE1{I.C.T.K.S.L.P.P.K.C.R.[dP].P}$PEPTIDE1,PEPTIDE1,2:R3-10:R3|PEPTIDE1,PEPTIDE1,1:R1-13:R2$$$V2.0) were 7.00, 7.82 and 6.47.
Taken in the same sequence, the figures for `CC[C@H](C)[C@@H]1NC(=O)[C@@H]2CCCN2C(=O)[C@H]2CCCN2C(=O)[C@H](CCCNC(=N)N)NC(=O)[C@@H]2CSSC[C@H](NC1=O)C(=O)N[C@@H]([C@@H](C)O)C(=O)N[C@@H](CCCCN)C(=O)N[C@@H](CO)C(=O)N[C@@H](CC(C)C)C(=O)N1CCC[C@H]1C(=O)N1CCC[C@H]1C(=O)N[C@@H](CCC(N)=O)C(=O)N2` [Ex. 188] (HELM PEPTIDE1{I.C.T.K.S.L.P.P.Q.C.R.[dP].P}$PEPTIDE1,PEPTIDE1,2:R3-10:R3|PEPTIDE1,PEPTIDE1,1:R1-13:R2$$$V2.0) were 7.47, > 7.00 and 6.98.
With `CC[C@H](C)[C@@H]1NC(=O)[C@@H]2CCCN2C(=O)[C@H]2CCCN2C(=O)[C@H](CCCNC(=N)N)NC(=O)[C@@H]2CSSC[C@H](NC1=O)C(=O)N[C@@H]([C@@H](C)O)C(=O)N[C@@H](CCCCN)C(=O)N[C@@H](CO)C(=O)N[C@@H](CC(C)C)C(=O)N1CCC[C@H]1C(=O)N1CCC[C@H]1C(=O)N[C@@H](CCCNC(=N)N)C(=O)N2` [Ex. 185] (HELM PEPTIDE1{I.C.T.K.S.L.P.P.R.C.R.[dP].P}$PEPTIDE1,PEPTIDE1,2:R3-10:R3|PEPTIDE1,PEPTIDE1,1:R1-13:R2$$$V2.0), the pIC50 was 6.90 in assay [1], 7.85 in assay [2] and 6.29 in assay [3].
`CC(C)C[C@@H]1NC(=O)[C@H](CO)NC(=O)[C@H](CCCCN)NC(=O)[C@H]([C@@H](C)O)NC(=O)[C@@H]2CSSC[C@H](NC(=O)[C@H](CCCCN)NC(=O)[C@@H]3CCCN3C(=O)[C@@H]3CCCN3C1=O)C(=O)N[C@@H](CCCNC(=N)N)C(=O)N1CCC[C@@H]1C(=O)N1CCC[C@H]1C(=O)N[C@@H](Cc1c[nH]c3ccccc13)C(=O)N2` [Ex. 195] (HELM PEPTIDE1{W.C.T.K.S.L.P.P.K.C.R.[dP].P}$PEPTIDE1,PEPTIDE1,2:R3-10:R3|PEPTIDE1,PEPTIDE1,1:R1-13:R2$$$V2.0): the pIC50 in assay [1] was 6.97; in assay [2] it was 7.92; in assay [3], 5.40.
For the molecule `CCCC[C@@H]1NC(=O)[C@@H]2CCCN2C(=O)[C@@H](Cc2ccccc2)NC(=O)[C@H](Cc2ccc(O)cc2)NC(=O)[C@@H]2CSSC[C@H](NC1=O)C(=O)N[C@@H]([C@@H](C)O)C(=O)N[C@@H](C)C(=O)N[C@@H](CO)C(=O)N[C@@H]([C@@H](C)CC)C(=O)N1CCC[C@H]1C(=O)N1CCC[C@H]1C(=O)N[C@@H](CCC(N)=O)C(=O)N2` [Ex. 116] (HELM PEPTIDE1{A.S.I.P.P.Q.C.Y.[dF].P.[Nle].C.T}$PEPTIDE1,PEPTIDE1,7:R3-12:R3|PEPTIDE1,PEPTIDE1,1:R1-13:R2$$$V2.0), the “Trypsin at 100 μM %” value in assay [1] (at 100 μM) was 0%. Moreover, the pIC50 in assay [4] was 7.34; in assay [5] it was 4.40.
In the case of `CC[C@H](C)[C@@H]1NC(=O)[C@@H]2CCCN2C(=O)[C@H]2CCCN2C(=O)[C@H](CCCNC(=N)N)NC(=O)[C@@H]2CSSC[C@H](NC1=O)C(=O)N[C@@H]([C@@H](C)O)C(=O)N[C@@H](CCCCN)C(=O)N[C@@H](CO)C(=O)N[C@@H](CC(C)C)C(=O)N1CCC[C@H]1C(=O)N1CCC[C@H]1C(=O)N[C@@H]([C@@H](C)CC)C(=O)N2` [Ex. 180] (HELM PEPTIDE1{I.C.T.K.S.L.P.P.I.C.R.[dP].P}$PEPTIDE1,PEPTIDE1,2:R3-10:R3|PEPTIDE1,PEPTIDE1,1:R1-13:R2$$$V2.0), the pIC50 in assay [1] was 7.22; in assay [2], > 7.00; in assay [3], 6.92.
On the same counts, the results for `CC[C@H](C)[C@@H]1NC(=O)[C@@H]2CCCN2C(=O)[C@H]2CCCN2C(=O)[C@H](CCCNC(=N)N)NC(=O)[C@@H]2CSSC[C@H](NC1=O)C(=O)N[C@@H]([C@@H](C)O)C(=O)N[C@@H](CCCCN)C(=O)N[C@@H](CO)C(=O)N[C@@H](CC(C)C)C(=O)N1CCC[C@H]1C(=O)N1CCC[C@H]1C(=O)N[C@@H]([C@@H](C)O)C(=O)N2` [Ex. 189] (HELM PEPTIDE1{I.C.T.K.S.L.P.P.T.C.R.[dP].P}$PEPTIDE1,PEPTIDE1,2:R3-10:R3|PEPTIDE1,PEPTIDE1,1:R1-13:R2$$$V2.0) are 7.41, > 7.00 and 6.79.
On the same counts, the results for `CCCC[C@@H]1NC(=O)[C@@H]2CCCN2C(=O)[C@H]2CCCN2C(=O)[C@H](CCCNC(=N)N)NC(=O)[C@@H]2CSSC[C@H](NC1=O)C(=O)N[C@@H]([C@@H](C)O)C(=O)N[C@@H](CCCCN)C(=O)N[C@@H](CO)C(=O)N[C@@H](CC(C)C)C(=O)N1CCC[C@H]1C(=O)N1CCC[C@H]1C(=O)N[C@@H](CCCCN)C(=O)N2` [Ex. 192] (HELM PEPTIDE1{[Nle].C.T.K.S.L.P.P.K.C.R.[dP].P}$PEPTIDE1,PEPTIDE1,2:R3-10:R3|PEPTIDE1,PEPTIDE1,1:R1-13:R2$$$V2.0) are 7.14, 7.80 and 6.19.
